The subject of series [1] is Hypercholesterolemic rats. Description: Cholesterol lowering in hypercholesterolemic (cholesterol-fed) rats. It counts as in vivo, rat. The protocol: Plasma cholesterol values were assessed prior to and following treatment and the effects of compound were expressed as a percentage change from the pre-dose cholesterol levels. […] Compounds were routinely tested for oral efficacy at a dose of 0.5 mg/kg/d. Hypercholesterolemic rats were treated with vehicle, Compound 13-1-cis (a HepDirect version of Compound 7), Compound 19-1 (a diethyl ester of Compound 19-2), Compound 13-9 (a HepDirect version of Compound 19-2), Compound 12-5 (a bisPom version of compound 19-2), or Compound 15-5 (a bisamidate version of Compound 19-2) at 0.5 mg/kg/d orally. Compound 13-1-cis has been extensively characterized and was used as the positive control for the assay.

For series [2], the system named is ZDF rats. As to the kind of experiment: Circulating TSH in ZDF rats treated 28 days. The class given is in vivo, rat. The following applies: 50 mg/kg/d for 28 days. An excerpt:
Another concern with synthetic thyromimetics is the suppression of the endogenous thyroid axis. Thyroid homeostasis is maintained by the action of thyroid releasing hormone (TRH) and thyroid stimulating hormone (TSH). […] Although this particular side effect has been noted, it has typically been treated with less concern than the cardiac safety issues. […] Therefore previous investigators have measured TSH levels when testing synthetic thyromimetics and have used a 30% decrease of TSH as the denominator in their therapeutic index calculations. […] Therefore, both compounds suppress TSH as doses lower than that required to decrease circulating cholesterol. […] However, 0.2 mg/kg/d of Compound 18 in 28 day treated ZDF rats, decreased TSH levels greater than 90%.

Series [3] has as its system cholesterol-fed rat. Description: Subacute studies in cholesterol-fed rats, IP once-a-day for seven days: serum cholesterol, heart weight, heart GPDH.
Method: The cholesterol-fed rat is an animal model of hypercholesterolemia generated by feeding the animals a diet with high cholesterol content.
Serum cholesterol values were assessed and the animals randomized into groups for treatment.
In series [4] the test system is ZDF rats. Description: Liver triglycerides and liver histology in ZDF rats, oral 28 days. It counts as in vivo, rat. The protocol:
In other experiments, Compound 7 was orally administered to ZDF rats for 28 days. Liver triglycerides were analyzed as described above. Total liver triglycerides were reduced in the treated animals 42% in the 2.5 mg/kg/d group. […] The hepatic steatosis is a well known and described phenomenon for the ZDF rat, and therefore not attributable to vehicle treatment.

Series [5] in a line: Liver distribution following oral administration (liver levels of Compound 7 by LC-MS). It counts as in vivo, rat. Conditions: levels of Compound 7 in liver, 10 mg/kg@1.5 h, normal rats. The protocol:
Liver levels of Compound 7 were assessed in normal rats following oral administration of the HepDirect™ or other prodrugs. The levels were used to estimate potential efficacy. Liver levels were assessed by LC-MS using the 363.3/63.0 peak area to estimate levels of Compound 7 generated by orally administered prodrugs.

In series [6] the test system is isolated rat hepatocytes. As to the kind of experiment: Activation of prodrug in isolated rat hepatocytes. Conditions: active species in hepatocytes, 100 μM. The class given is in vitro ADME. The protocol:
Method: Hepatocytes are prepared from fed Sprague-Dawley rats (250-300 g) according to the procedure of Berry and Friend (Berry, M. N., Friend, D. S. J. Cell Biol. 43, 506-520 (1969)) as modified by Groen (Groen, A. K. et al., Eur J. Biochem 122, 87-93 (1982)). Hepatocytes (60 mg wet weight/mL) are incubated in 1 mL Krebs-bicarbonate buffer containing 10 mM glucose, and 1 mg/mL BSA. Incubations are carried out in a 95% oxygen, 5% carbon dioxide atmosphere in closed, 50-mL Falcon tubes submerged in a rapidly shaking water bath (37° C.). Prodrugs are dissolved in DMSO to yield 10 mM stock solutions, and then diluted into the cell suspension to yield a final concentration of 100 μM. At appropriate time points over the course of 1 h, aliquots of the cell suspension are removed and spun through a silicon/mineral oil layer into 10% perchloric acid. The cell extracts in the acid layers are neutralized, and the intracellular prodrug metabolite content analyzed by reverse phase HPLC or LC-MS/MS (Example F). The AUC of the active species in the hepatocytes is calculated from the concentration-time profile of parent compound.

For series [7], the system named is Sprague Dawley (SD) rat. As to the kind of experiment: Cardiovascular activity of T3 mimetics in the Sprague Dawley rat, oral 7 days. The class given is in vivo. Conditions: SD rats, p.o. 7 days, Compound cis-13-1 1-50 mg/kg/day. An excerpt:
Method: […] The control group (n=6) was given vehicle only. […] On the 7th day after the start of dosing, animals were anesthetized with Isoflurane and the left ventricle cannulated with a high fidelity catheter tip transducer via the right carotid artery. Left ventricular pressure, its first derivative (LVdP/dt), lead I ECG, and heart rate (HR) triggered off the ECG waveform, were digitally recorded. LV dP/dt is a well accepted measure of ionotropic state. Systolic and diastolic aortic pressures were measured by retracting the catheter into the proximal aorta.

Series [8] has as its system ZDF rats. The following applies: rat, in vivo, 28 days. The protocol:
Compound 18 was administered at doses up to 5 mg/kg/d. Compound cis-13-1 was administered at doses up to 50 mg/kg/d. We reasoned that the ZDF rat, as a metabolically challenged animal model, would be more sensitive to the potential adverse cardiac effects of thyromimetics than a normal, cholesterol-fed rat. At sacrifice, heart rate, and the first derivative of left ventricular pressure (LV dP/dt) were measured with a Millar catheter inserted into the left ventricle.

Series [9] relates to cholesterol fed rats. As to the kind of experiment: Subacute studies in cholesterol fed rats, PO once a day for seven days: cholesterol reduction, heart weight. Conditions: 0.6-50 mg/kg/day PO once a day for seven days. The class given is in vivo, rat. The protocol: Methods: […] Compound 13-1-cis and Compound 18 were administered PO once a day for seven days. Serum TSH is measured using an enzyme immunoassay (EIA) kit designed for rat TSH (Amersham Pharmacia Biotech, Arlington Heights, Ill.). Expression levels of liver genes (e.g., the LDL-receptor, apoB, cpt-1, spot14 and apoA1) and heart genes ([…]^2, Kv1.5, MHCα, MHCβ, Alpha1c) are quantified by Northern blot analysis or by RT-PCR. […] Oligonucleotides specific for the complementary gene sequences are used to make ^32P-labeled probes (Multiprime DNA labeling systems, Amersham Pharmacia Biotech). Following hybridization of the probes to the nylon membranes, radioactivity is assessed on a blue film (Eastman Kodak Co,), and the resulting image quantified using the appropriate software. RT-PCR is performed using an iCycler instrument (Biorad) using appropriate primers by means of standard methodology [[…] et al. (2000) Life Sciences 66: 1683-94]. […] The activities of PEPCK and glucose 6-phosphatase in liver are measured by means of direct enzymatic assays of homogenized liver tissue as described by Andrikopoulos S et al. (1993) Diabetes 42: 1731-1736. Alternatively, expression levels of the corresponding genes are determined by Northern blot analysis or RT-PCR as described above.

Where [10] appears, read: Compound 18 1 mg/kg, vs control.
[11] abbreviates: Compound 18 1 mg/kg, vs vehicle.

Bounds are passed on as bounds.

On to `Cc1cc(OCP(=O)(O)O)cc(C)c1Cc1ccc(O)c(C(C)C)c1` [Compound 7, [3,5-dimethyl-4-(4′-hydroxy-3′-iso-propylbenzyl)phenoxy]methylphosphonic Acid], for which the “efficacy in lowering cholesterol” value in series [1] (another experiment, dose and route not given) was “efficacous”. For the same compound, the TSH result in series [2] is given as “no statistically significant difference from vehicle”. Moreover, in series [3] (1-100 mg/kd/day, IP once-a-day for seven days), the serum cholesterol entry was “significantly decreased serum cholesterol”. In addition, the “therapeutic window (separation between cholesterol lowering and cardiac toxicity)” value in [3] (cholesterol-fed rats) was 10- to 100 fold. Also, the “microvesicular steatosis (H&E liver histology)” value in [4] was “dose dependent reduction in the microvesicular steatosis”. Also, the “Liver Levels” value in series [5] is reported as “Not Detected”. Further, in [6], the “AUC (0-2 h)” value was 1371 nmol·h/g.
On to `Cc1cc(OC[P@@]2(=O)OCC[C@@H](c3cccc(Cl)c3)O2)cc(C)c1Cc1ccc(O)c(C(C)C)c1` [Compound 13-1-cis, Cis (S)-2-[(3,5-Dimethyl-4-(4′-hydroxy-3′-iso-propylbenzyl)phenoxy)methyl]-4-(3-Chlorophenyl)-2-oxo-2λ^5-[1,3,2]-dioxaphosphinane], for which, in [1] (hypercholesterolemic rats, 0.5 mg/kg/d orally), the cholesterol lowering entry is reported as “significant lowering of cholesterol”. For the same compound, in [7] (setting [10]), the Heart weight result is given as “no significant changes” and the “heart weight normalized to body weight” value is “no significant changes”. In series [7] (setting [11]), the HR entry is “not significantly different”, the “LV dP/dt” value is “not significantly different” and the systolic aortic pressure entry is given as “not significantly different”. The diastolic aortic pressure result in [7] (vs vehicle) is listed as “not significantly different”. In addition, the “TI Improvement, ED15 HR” value in series [8] is given as above 39. In [9], the serum cholesterol entry is recorded as “significantly decreased serum cholesterol”.
